The target in assay [1] is Cannabinoid receptor 1 (Rattus norvegicus, UniProt P20272). The experiment in a line: Displacement of [3H]CP55940 from rat brain membrane CB1 receptor assessed as inhibition constant incubated for 1 hr by liquid scintillation counting method. It is filed as cell membranes.
Assay [2] concerns the target T1, Cannabinoid receptor 2 (Homo sapiens, UniProt P34972). The experiment in a line: Displacement of [3H]CP55940 from human CB2 receptor expressed in HEK293 cell membrane assessed as inhibition constant incubated for 1 hr by liquid scintillation counting method. It counts as cell membranes. (In general: Loss of bound radioactivity is the signal in a displacement assay; it reports binding, not function.)

For assay [3], the target named is T2, Cannabinoid receptor 1 (Homo sapiens, UniProt P21554). The experiment in a line: Displacement of [3H]CP55940 from human CB1 receptor stably expressed in CHO cells at 10 uM by radioligand binding assay relative to control. It is filed as cell-based.
T2 sequence (P21554 whole entry): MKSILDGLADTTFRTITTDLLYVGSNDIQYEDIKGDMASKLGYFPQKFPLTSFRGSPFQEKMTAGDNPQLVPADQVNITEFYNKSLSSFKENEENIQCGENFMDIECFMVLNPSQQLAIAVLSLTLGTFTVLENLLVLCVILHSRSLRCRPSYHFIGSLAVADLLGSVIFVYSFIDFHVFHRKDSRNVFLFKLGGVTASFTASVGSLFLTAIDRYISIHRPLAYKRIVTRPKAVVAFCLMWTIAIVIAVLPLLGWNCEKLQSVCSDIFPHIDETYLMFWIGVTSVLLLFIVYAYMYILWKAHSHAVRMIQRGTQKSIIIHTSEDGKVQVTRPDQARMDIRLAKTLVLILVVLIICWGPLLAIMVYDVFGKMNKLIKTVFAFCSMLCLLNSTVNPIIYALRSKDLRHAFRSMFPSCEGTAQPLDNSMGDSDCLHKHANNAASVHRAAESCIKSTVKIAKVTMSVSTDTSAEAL
Assay [4] addresses T1, Cannabinoid receptor 2. The assay can be described thus: Binding affinity to human CB2 receptor stably expressed in HEK cells assessed as inhibition constant by […]. It counts as cell-based.
For assay [5], the target named is T1, Cannabinoid receptor 2. The assay can be described thus: Displacement of [3H]CP55940 from CB2 receptor (unknown origin) expressed in HEK cell membrane measured after 90 mins by competitive binding assay. It is filed as cell membranes.
The target of assay [6] is T2, Cannabinoid receptor 1. The experiment in a line: Binding affinity to CB1 receptor (unknown origin) assessed as inhibition constant.
In assay [7] the target is T1, Cannabinoid receptor 2. The assay can be described thus: Binding affinity to CB2 receptor (unknown origin) assessed as inhibition constant.
Assay [8] deals with T2, Cannabinoid receptor 1. The experiment in a line: Displacement of [3H]CP55940 from human CB1 receptor.
In assay [9] the target is T1, Cannabinoid receptor 2. The experiment in a line: Displacement of [3H]CP55940 from human CB2 receptor.
Assay [10] addresses Cholinesterase (Homo sapiens) (UniProt P06276). The assay can be described thus: Inhibition of human BChE at 10 uM relative to control.
The target of assay [11] is T2, Cannabinoid receptor 1. The experiment in a line: Binding affinity to human CB1 receptor stably expressing CHO cells assessed as inhibition constant by radioligand binding assay. It counts as cell-based.

These results are taken from ChEMBL document CHEMBL5230132, “Cannabinoid Receptor Subtype 2 (CB2R) in a Multitarget Approach: Perspective of an Innovative Strategy in Cancer and Neurodegeneration” (J Med Chem, 2020).

In general, Ki refers to the dissociation constant of the complex between target and ligand, obtained from inhibition or displacement. What is called inhibition is the relative decrease from the control value, in per cent. High values mean a strong effect, low ones a weak effect.

T1 sequence (P34972 whole entry): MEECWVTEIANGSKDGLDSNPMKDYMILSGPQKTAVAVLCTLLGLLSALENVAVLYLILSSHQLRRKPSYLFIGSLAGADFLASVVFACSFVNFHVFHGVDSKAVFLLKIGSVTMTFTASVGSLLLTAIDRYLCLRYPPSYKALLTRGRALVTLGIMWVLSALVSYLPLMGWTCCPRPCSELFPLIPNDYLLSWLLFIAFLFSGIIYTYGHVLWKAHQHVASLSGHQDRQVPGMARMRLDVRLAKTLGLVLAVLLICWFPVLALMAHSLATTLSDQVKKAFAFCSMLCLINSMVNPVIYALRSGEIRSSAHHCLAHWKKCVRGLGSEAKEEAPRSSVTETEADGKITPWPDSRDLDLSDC
Chain of Cannabinoid receptor 1 (Rattus norvegicus, UniProt P20272) (P20272 whole entry): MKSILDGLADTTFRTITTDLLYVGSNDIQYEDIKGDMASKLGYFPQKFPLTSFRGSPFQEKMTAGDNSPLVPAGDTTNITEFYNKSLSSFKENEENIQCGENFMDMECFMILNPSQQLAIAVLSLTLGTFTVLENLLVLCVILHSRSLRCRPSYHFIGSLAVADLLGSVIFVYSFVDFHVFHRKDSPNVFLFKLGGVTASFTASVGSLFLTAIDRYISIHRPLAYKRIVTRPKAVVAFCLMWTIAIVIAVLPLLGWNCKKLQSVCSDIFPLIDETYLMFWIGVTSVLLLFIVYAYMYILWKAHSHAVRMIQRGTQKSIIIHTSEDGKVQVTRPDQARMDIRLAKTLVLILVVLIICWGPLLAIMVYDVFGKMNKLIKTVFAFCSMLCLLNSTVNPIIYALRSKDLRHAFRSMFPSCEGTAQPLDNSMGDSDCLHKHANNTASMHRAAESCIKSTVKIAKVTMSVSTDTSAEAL
Chain of Cholinesterase (Homo sapiens) (P06276 whole entry): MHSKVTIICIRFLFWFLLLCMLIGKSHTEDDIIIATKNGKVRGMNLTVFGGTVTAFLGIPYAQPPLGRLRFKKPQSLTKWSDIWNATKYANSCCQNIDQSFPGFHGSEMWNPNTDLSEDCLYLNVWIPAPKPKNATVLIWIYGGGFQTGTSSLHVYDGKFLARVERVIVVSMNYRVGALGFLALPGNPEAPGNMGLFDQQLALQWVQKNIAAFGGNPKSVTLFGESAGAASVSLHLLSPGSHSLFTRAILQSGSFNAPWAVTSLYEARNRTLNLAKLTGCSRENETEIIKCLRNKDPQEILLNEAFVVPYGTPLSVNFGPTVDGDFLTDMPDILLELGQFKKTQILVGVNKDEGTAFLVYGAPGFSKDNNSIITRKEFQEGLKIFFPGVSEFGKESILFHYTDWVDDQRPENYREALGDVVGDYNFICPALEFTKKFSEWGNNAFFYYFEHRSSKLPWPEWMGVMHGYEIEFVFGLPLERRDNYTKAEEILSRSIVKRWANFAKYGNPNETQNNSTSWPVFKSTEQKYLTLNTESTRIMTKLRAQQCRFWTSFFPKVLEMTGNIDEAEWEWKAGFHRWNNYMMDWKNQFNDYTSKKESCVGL

With `CCCC(C)(C)c1ccc2c(c1)OC(C)(C)C1CC=C(C)CC21` (stereo not drawn), the Ki was 677 nM at Cannabinoid receptor 1 [1] and 3.4 nM on Cannabinoid receptor 2 [2].
`CCOc1ccc(Nc2nc3cc(C(=O)N(CC)CC)ccc3n2CCC(C)C)cc1` displayed an Activity at Cannabinoid receptor 1 [3] of 13%. In addition, the Ki at Cannabinoid receptor 2 [4] is 1.9 nM.
Consider `CN1CCCCC1Cn1cc(C(=O)c2cc([N+](=O)[O-])ccc2I)c2ccccc21` (stereo not drawn), for which the Ki at Cannabinoid receptor 2 [5] was found to be 7 nM.
Turning to `CCC(C)(C)c1ccc2c(c1)OC(C)(C)C1CC=C(C)CC21` (stereo not drawn), the values for the Ki at Cannabinoid receptor 1 [1] and at Cannabinoid receptor 2 [2] were 2290 nM and 14 nM, respectively.
For the compound `CCCn1c(C)c(C(=O)c2ccc3ccccc3c2)c2ccccc21`, the Ki is 383 nM at Cannabinoid receptor 1 [6] and 13.8 nM on Cannabinoid receptor 2 [7].
In the case of `O=C(c1ccc2ccccc2c1)c1cn2c3c(cccc13)OCC2CN1CCOCC1` (stereo not drawn), the Ki at Cannabinoid receptor 1 [8] amounted to 62.3 nM; at Cannabinoid receptor 2 [9] it was 3.3 nM.
In assay [10], `CCN(CC)C(=O)c1ccc2c(c1)nc(Nc1ccc(Oc3ccccc3)cc1)n2CCC(C)C` gave an inhibition of 2%.
For the compound `CCOc1ccc(Cc2nc3cc(C(=O)N(CC)CC)ccc3n2CCC(C)C)cc1`, at Cannabinoid receptor 1 [11], the Ki was above 5000 nM.
